Measured values taken from patent US9090600B2, “Fungicidal 4-substituted-3-{phenyl[(heterocyclylmethoxy)imino]methyl}-1,2,4-oxadizol-5(4H)-one derivatives” (BAYER INTELLECTUAL PROPERTY GMBH, priority 2011, dated 2015).
Marks after values point to notes of the source that are not given here.

Conditions: pH 2.7

Row | Compound | LogP
1 | Cn1c(/C(=N\OCc2cccc(NC(=O)OCC#Cc3ccccc3)n2)c2ccccc2)noc1=O [compound 468] | 4.25 [a]
2 | CC(OCc1ccccc1)C(=O)Nc1nc(CO/N=C(/c2ccccc2)c2noc(=O)n2C)cs1 (centres unmarked) [Example 126] | 3.85 [a]
3 | Cn1c(/C(=N\OCc2cccc(NC(=O)OCC(C)(CO)CCl)n2)c2ccccc2)noc1=O (centres unmarked) [compound 424] | 3.19 [a]
4 | CCC/C=C\COC(=O)Nc1cccc(CO/N=C(/c2ccccc2)c2noc(=O)n2C)n1 [compound 535] | 4.53 [a]
5 | Cn1c(C(=NOCc2cccc(NC(=O)OCc3ccccc3F)n2)c2ccccc2)noc1=O [compound 495] | 4.01 [a]
6 | CC=CCCCOC(=O)Nc1cccc(CON=C(c2ccccc2)c2noc(=O)n2C)n1 [compound 505] | 4.39 [a]
7 | Cn1c(/C(=N\OCc2csc(NC(=O)COc3cccc(Cl)c3)n2)c2ccccc2)noc1=O [Example 368] | 3.87 [a]
8 | COc1cccc(C(=NOCc2cccc(NC(=O)c3cccc(F)c3)n2)c2noc(=O)n2C)c1 [Example 399] | 3.72 [a]
9 | Cn1c(/C(=N\OCc2csc(N)n2)c2ccccc2Cl)noc1=O [Example 90] | 1.72 [a]
10 | Cn1c(/C(=N\OCc2csc(NC(=O)COc3cccc(Br)c3)n2)c2ccccc2)noc1=O [Example 314] | 3.94 [a]
11 | Cc1ccc(/C(=N/OCc2csc(NC(=O)C3COc4ccccc4O3)n2)c2noc(=O)n2C)cc1 (racemic) [Example 392] | 3.9 [a]
12 | C=C(C)OC(=O)Nc1cccc(CO/N=C(/c2ccccc2)c2noc(=O)n2C)n1 [compound 466] | 3.37 [a]
13 | CC(C)(C)OC(=O)Nc1cccc(CON=C(c2noc(=O)[nH]2)c2cccc(F)c2F)n1 [Example 460] | 3.76 [a]
14 | Cn1c(/C(=N\OCc2cccc(NC(=O)OC[Si](C)(C)C)n2)c2ccccc2)noc1=O [compound 440] | 4.53 [a]
15 | CCCc1ccc(OC(=O)Nc2cccc(CO/N=C(/c3ccccc3)c3noc(=O)n3C)n2)cc1 [compound 467] | 4.74 [a]
16 | Cc1ccccc1OC(=O)Nc1cccc(CO/N=C(/c2ccccc2)c2noc(=O)n2C)n1 [compound 521] | 3.96 [a]
17 | Cn1c(/C(=N\OCc2cccc(NC(=O)OCc3ccc(F)cc3)n2)c2ccccc2)noc1=O [compound 528] | 3.99 [a]
18 | Cc1ccc(C2(C(=O)Nc3cccc(CO/N=C(/c4ccccc4)c4noc(=O)n4C)n3)CC2)cc1 [Example 397] | 4.76 [a]
19 | Cn1c(/C(=N\OCc2csc(NC(=O)COc3ccccc3Br)n2)c2ccccc2)noc1=O [Example 159] | 3.89 [a]
20 | CCCCCOC(=O)Nc1cccc(CO/N=C(/c2ccccc2F)c2noc(=O)n2C)n1 [Example 444] | 4.34 [a]
21 | CC(C)CCCOC(=O)Nc1cccc(CO/N=C(/c2ccccc2)c2noc(=O)n2C)n1 [Example 45] | 4.81 [a]
22 | Cn1c(/C(=N\OCc2cccc(NC(=O)OCCCCCl)n2)c2ccccc2)noc1=O [compound 550] | 3.83 [a]
23 | Cn1c(/C(=N\OCc2cccc(NC(=O)OCCc3cccc(Cl)c3)n2)c2ccccc2)noc1=O [Example 359] | 4.51 [a]
24 | CC(C)CSC(=O)Nc1cccc(CO/N=C(/c2ccccc2)c2noc(=O)n2C)n1 [Example 241] | 4.39 [a]
25 | Cn1c(/C(=N\OCc2cccc(NC(=O)OCCc3cccc(Br)c3)n2)c2ccccc2)noc1=O [Example 49] | 4.61 [a]
26 | C#CCCOC(=O)Nc1cccc(CON=C(C(N)=NO)c2ccccc2)n1 (mixture of isomers) [Example V-1] | 2.1 [a]
27 | CCCCCOC(=O)Nc1nc(CO/N=C(/c2ccc(C)cc2)c2noc(=O)n2C)cs1 [Example 41] | 4.41 [a]
28 | CCc1cccc(OC(=O)Nc2cccc(CO/N=C(/c3ccccc3)c3noc(=O)n3C)n2)c1 [compound 435] | 4.34 [a]
29 | CC(=O)OCCCCOC(=O)Nc1cccc(CO/N=C(/c2ccccc2)c2noc(=O)n2C)n1 [compound 514] | 3.35 [a]
